The values that follow come from PubChem BioAssay (NCI).

Common to all, as to assay: inhibition of tumour cell growth, NCI panel, 48 h
Test [1] deals with SK-OV-3 ovarian.
Test [2] deals with SN12C renal.
Test [3] has as its system HCT-116 colon.
For test [4], the system named is RPMI-8226 leukemia.
In test [5] the test system is LOX IMVI melanoma.
For test [6], the system named is SF-295 CNS.
Test [7] concerns MCF7 breast.
The test system of test [8] is BT-549 breast.
Test [9] deals with IGROV1 ovarian.
Test [10] deals with A498 renal.

Structures are written as SMILES.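 Five concentrations, 48 hours, 96-well plates. GI50: concentration for 50% inhibition of growth. TGI marks complete inhibition of growth.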

For the compound `COc1cc(S(=O)(=O)Nc2ccc(C(=O)/C=C/c3ccc(O)cc3)cc2)ccc1F`, the GI50 in test [1] was > 100000 nM; in test [2] it was 2610 nM; in test [3] it was > 100000 nM; in [4] it was 58.5 µM; in test [5], > 100000 nM; in test [6], > 100000 nM. Besides, the GI50 in test [7] and in test [8] was > 100000 nM each time. For the same compound, the TGI in test [1] is > 100 µM; in test [2] it was 89.7 µM; in test [3], > 100 µM; in [4], > 100 µM; in test [5], > 100 µM; in [6], > 100 µM. For the same compound, the TGI in [7] and in [8] was > 100 µM in each case.

`COc1ccc(-c2c3c(n(C4OC(CO)C(O)C(O)C4O)c(=S)c2C#N)CCC3)cc1` (stereo unspecified): the TGI in [1], in test [2], in test [3], in test [9], in [4] and in test [5] was > 100 µM in each case. Besides, the TGI in [6], in test [7] and in [8] was > 100 µM in each case.

For the compound `COC(=O)C1=C(C(=O)OC)SC(=CC#CC=C2SC(C(=O)OC)=C(C(=O)OC)S2)S1`, the TGI was 31.5 µM in test [1]; > 52.5 µM in test [2]; 32.3 µM in test [3]; 45.8 µM in test [9]; > 100 µM in test [4]; 44.2 µM in test [5]. For the same compound, the TGI in test [6] came to 11.8 µM; in [10] it was 34.7 µM.

On to `CCC1=C(C(C)=O)[C@@H]2CCCCC[C@@H](C(=O)OC)C2C1=O` (stereo partly specified), for which the TGI in test [1], in test [2], in test [3], in [9], in [4] and in test [6] was > 100 µM in each case. For the same compound, the TGI in test [10] is > 100 µM.

As for `COc1ccccc1C1Nn2c(nc3ccccc3c2=O)N1c1ccc(C)cc1` (stereo unspecified), the TGI came out at 15.7 µM in [1]; 21.7 µM in test [2]; 16 µM in test [3]; 19.8 µM in [9]; 25.9 µM in test [4]; 20.8 µM in test [5]. For the same compound, the TGI stood at 17.8 µM in test [6], 26.3 µM in [7] and 68.6 µM in [8].

As to `N#C/C(=C/n1c(=S)[nH]c2ccc([N+](=O)[O-])cc21)C(N)=O`, the TGI in test [1], in test [2], in [3], in test [9], in [4] and in test [5] was > 100 µM in each case. The TGI in test [6] and in test [7] was > 100 µM each time.

As for `CC(C)N1CC2CC(CN(C(=O)c3ccccc3)C2)C1`, the TGI in test [1], in test [2], in [9], in test [4], in [5] and in test [6] was > 100 µM in each case. Also, the TGI in test [10] is > 100 µM.

Regarding `CC(=O)OCC1OC(n2c(-c3ccccc3)c(N=Nc3ccccc3)c(C)c(C#N)c2=S)C(OC(C)=O)C(OC(C)=O)C1OC(C)=O` (stereo unspecified), the TGI in test [1], in [2], in test [3], in test [9], in test [4] and in test [5] was > 100 µM throughout. In addition, the TGI in test [6], in [7] and in test [8] was > 100 µM in each case.

As for `CSC(SC)=C(C(=O)O)P(=O)(O)O`, the TGI in test [1], in test [2], in test [3], in [9], in test [5] and in [6] was > 100 µM throughout. The TGI in [7] and in test [10] was > 100 µM throughout.

`COc1cc(-c2n/c(=C\c3c(O)[nH]c4ccc(Cl)cc34)cc3c2=Nc2ccccc2-3)ccc1F`: the GI50 was 2290 nM in test [1]; 1780 nM in test [2]; 1750 nM in test [3]; 2070 nM in test [9]; 6.75 µM in test [4]; 2340 nM in [6]. The results for the GI50 in test [7], in test [10] and in test [8] were 1250 nM, 3160 nM and 2060 nM, respectively. For the same compound, the TGI in test [1] was 5.3 µM; in test [2], 3.6 µM; in [3], 3.34 µM; in test [9], 5.17 µM; in test [4], > 100 µM; in test [6], 5.55 µM. The figures for the TGI in test [7], in test [10] and in test [8] were 3.26 µM, 15.2 µM and 3.84 µM, respectively.

For the compound `NCCCCNCCCNC(=O)c1nc(-c2nc(CCN)sc2Cl)sc1Cl`, the TGI in test [1], in test [2], in test [3], in test [9], in test [4] and in test [6] was > 100 µM each time. Also, in [10], the TGI was > 100 µM.

For `COC(=O)C1CCc2sc3ncnc(Nc4cn[nH]c4C(=O)Nc4ccc(CN5CCN(C)CC5)cc4)c3c21` (stereo unspecified), the GI50 in test [1] was 132 nM; in test [2], 345 nM; in test [9], 447 nM; in test [4], 1.41 µM; in test [5] it was 405 nM; in test [6], 659 nM. Further, the GI50 in test [10] is 218 nM; in [8], 899 nM. The TGI in test [1] is > 100 µM; in test [2], > 100 µM; in test [9], > 100 µM; in test [4], 4.21 µM; in test [5], 1.79 µM; in test [6], 17.1 µM. In addition, the TGI in test [10] was determined as 1.8 µM; in test [8] it was 6.02 µM.

On to `CN(C)CCNC(=O)c1cc(Cl)cc2ccc(-c3ccccc3)nc12`, for which the TGI in [1] came to 12.8 µM; in test [2] it was 12.9 µM; in [3], 10.7 µM; in test [9], 14.2 µM; in test [4], 5.32 µM; in test [5] it was 6.7 µM. Moreover, the TGI was 15.4 µM in test [6], 14.5 µM in test [7] and 15.8 µM in test [10].
